Measured values from ChEMBL document CHEMBL1159154, “Synthesis of new potent leukotriene B4 antagonists and their biological properties. 2” (Bioorg Med Chem Lett, 1994).
pIC50: −log10 of the molar value. Active and inactive are the calls of the source. No cut-off for these calls is given here.

Columns and labels:
Cavia porcellus [1] = assay: In vivo inhibitory activity against LTB4-induced bronchoconstriction of guinea pig at dose of 5 mg/kg after 10 min of iv administration; relatively active; format: functional, organism-based; parameters: dose 5 mg/kg
[2] = Partition coefficient in n-octanol/phosphate buffer, at pH 7.4; format: physicochemical
Homo sapiens = organism: Homo sapiens; assay: Concentration required for inhibitory activity against human PMNLs chemotaxis; format: functional, organism-based; conditions: PMNL
Cavia porcellus [3] = assay: In vivo inhibitory activity against LTB4-induced bronchoconstriction of guinea pig at dose of 5 mg/kg after 2 min of iv administration; Active; format: functional, organism-based; parameters: dose 5 mg/kg
Cavia porcellus [4] = assay: In vivo inhibitory activity against LTB4-induced bronchoconstriction of guinea pig at dose of 5 mg/kg after 2 min of iv administration; relatively active; format: functional, organism-based; parameters: dose 5 mg/kg
Cavia porcellus [5] = assay: In vivo inhibitory activity against LTB4-induced bronchoconstriction of guinea pig at dose of 5 mg/kg after 10 min of iv administration; Active; format: functional, organism-based; parameters: dose 5 mg/kg
Cavia porcellus [6] = assay: In vivo inhibitory activity against LTB4-induced bronchoconstriction of guinea pig at dose of 40 mg/kg after 60 min of po administration; Active; format: functional, organism-based; parameters: dose 40 mg/kg
Cavia porcellus [7] = assay: In vivo inhibitory activity against LTB4-induced bronchoconstriction of guinea pig at dose of 5 mg/kg after 30 min of iv administration; Active; format: functional, organism-based; parameters: dose 5 mg/kg
Cavia porcellus [8] = assay: In vivo inhibitory activity against LTB4-induced bronchoconstriction of guinea pig at dose of 40 mg/kg after 60 min of po administration; relatively active; format: functional, organism-based; parameters: dose 40 mg/kg

Row | Structure (SMILES) | logD [2] | pIC50 (Homo sapiens) | Activity (Cavia porcellus [3]) | also measured
1 | CCc1cc(C(C)=O)c(O)cc1OCc1cncc(C(=O)Nc2nc(CC(=O)O)cs2)n1 | 0.6 | 5.00 | Active | Activity (Cavia porcellus [1]): Weak activity
2 | CCc1cc(C(C)=O)c(O)cc1OCc1cccc(C(=O)N[C@@H](CC(=O)O)C(=O)O)n1 | -1.8 | 6.05 |  | Activity (Cavia porcellus [1]): Weak activity; Activity (Cavia porcellus [4]): Weak activity
3 | CCc1cc(C(C)=O)c(O)cc1OCc1nccc(C(=O)Nc2nc(CC(=O)O)cs2)n1 |  | 5.52 |  | 
4 | CCc1cc(C(C)=O)c(O)cc1OCc1cccc(C(=O)N(CC)CCC(=O)O)n1 | 0.1 | 6.52 | Active | Activity (Cavia porcellus [5]): Active; Activity (Cavia porcellus [6]): Active; Activity (Cavia porcellus [7]): Active
5 | CCc1cc(C(C)=O)c(O)cc1OCc1cccc(C(=O)Nc2nc(CC(=O)O)cs2)n1 | 1.9 | 6.52 |  | Activity (Cavia porcellus [1]): Weak activity
6 | CCc1cc(C(C)=O)c(O)cc1OCc1cccc(C(=O)Nc2nc(CC(=O)O)cs2)c1 |  | 5.30 |  | 
7 | CCc1cc(C(C)=O)c(O)cc1OCc1cccc(C(=O)NCC(=O)O)n1 |  | 4.92 |  | 
8 | CCc1cc(C(C)=O)c(O)cc1OCc1cccc(C(=O)N[C@@H](CO)C(=O)O)n1 | -0.3 | 6.52 | Active | Activity (Cavia porcellus [5]): Active; Activity (Cavia porcellus [8]): Weak activity; Activity (Cavia porcellus [7]): Active
9 | CCc1cc(C(C)=O)c(O)cc1OCc1cccc(C(=O)NCCC(=O)O)n1 | 0.7 | 6.00 | Active | Activity (Cavia porcellus [5]): Active
10 | CCc1cc(C(C)=O)c(O)cc1OCc1cccc(C(=O)Nc2cccc(CC(=O)O)[n+]2[O-])n1 | 0.8 | 7.70 | Active | Activity (Cavia porcellus [5]): Active; Activity (Cavia porcellus [7]): Active
11 | CCCc1c(OCCCOc2ccc(C(C)=O)c(OC)c2CCC)ccc2c1OC(C(=O)O)CC2 (stereo not drawn) [SC-41390] |  | 5.48 |  | 
12 | CCc1cc(C(C)=O)c(O)cc1OCc1cccc(C(=O)Nc2cccc(CC(=O)O)n2)n1 | 1.1 | 6.10 |  | 
13 | CCc1cc(C(C)=O)c(O)cc1OCc1cccc(C(=O)NCCO)n1 |  | 4.82 |  | 
14 | CCc1cc(C(C)=O)c(O)cc1OCc1cccc(C(=O)N(CC)CCO)n1 | 2.8 | 6.00 | Active | 
15 | CCc1cc(C(C)=O)c(O)cc1OCc1ccc(C(=O)Nc2nc(CC(=O)O)cs2)cn1 |  | 6.15 |  | 
